Assay results from paper PMC8170132, “Kinetics of Abacavir-Induced Remodelling of the Major Histocompatibility Complex Class I Peptide Repertoire” (Frontiers in Immunology, 2021).

Key:
[1] = target: T1, HLA-B*57:01fos (Homo sapiens, UniProt P01889, D201E/D98Y/E176V/E187L/E204Q/E69M/E70A/G107R/I90N/K202T/L105A/L119I/N104I/N87E/Q89R/Q94S/R106L/R155S/R180L/R86G/S101N/S121V/S35A/S48A/T118I/V36M/Y140S/Y91M); assay: Fluorescence polarisation association rate measurements; assay type: binding; details: tapasin-jun or tapasin-jun ERp57 C60A conjugate, fluorescence polarisation, 25°C
T1 construct: Fos leucine zipper (C); made in house
Experimental: Peptide loaded HLA-B*57:01fos complexes were obtained as described ([50]) by refolding solubilised inclusion bodies of HLA-B*57:01fos heavy chains with human β 2m and UV-labile HLA-B57-conditional peptide ligand.
Fluorescence polarisation measurements were taken using a SpectraMax i3x Multi-Mode Microplate Reader (Molecular Devices) with rhodamine detection cartridge. All experiments were conducted at 25°C and used PBS supplemented with 0.5 mg/ml bovine-gamma-globulin (Sigma), and a 20 fold molar excess of human β 2m (Fitzgerald) in a volume of 60 µl. Binding of TAMRA-labelled peptides is reported in millipolarisation units (mP) and is obtained from the equation mP = 1,000 × (S – G × P)/(S + G × P), where S and P are background subtracted fluorescence count rates (S = polarisation emission filter is parallel to the excitation filter; P = polarisation emission filter is perpendicular to the excitation filter) and G (grating) is an instrument and assay dependent factor.
Peptide-receptive HLA-B*57:01fos were obtained by exposing HLA-B*57:01fos complexes loaded with UV labile conditional peptide ligand to ~360 nm light for 20 min at 4°C (“UV exposed” hereafter). The binding of fluorescent peptides to UV exposed HLA-B*57:01fos was monitored in the absence or presence of excess (60 µM) abacavir or tapasin-jun or tapasin-jun ERp57 C60A conjugate. […] Most experiments used 0.55 µM HLA-B*57:01fos molecules, but a minority of experiments involved different preparations of HLA-B*57:01fos which required higher concentrations of HLA-B*57:01fos, up to a maximum of 3.18 µM HLA-B*57:01fos, to achieve equivalent polarisation levels.

[2] = target: T2, HLA-B*57:01 (Homo sapiens, UniProt P01889, D201E/D98Y/E176V/E187L/E204Q/E69M/E70A/G107R/I90N/K202T/L105A/L119I/N104I/N87E/Q89R/Q94S/R106L/R155S/R180L/R86G/S101N/S121V/S35A/S48A/T118I/V36M/Y140S/Y91M); parameters: method as in Illing et al., Nature 2012; details: ref Illing et al., Nature 2012, cited from earlier work; for HLA-B*57:01 previous observation by LC-MS/MS, Abacavir treated: abacavir treated cells; for HLA-B*57:01 previous observation by LC-MS/MS, Untreated: untreated cells
[3] = target: T2, HLA-B*57:01; assay: LC-MRM-MS quantitation of HLA ligands and co-purified abacavir from abacavir treated C1R.B*57:01 cells; assay type: cell-based; details: for Category of abacavir impact on peptide abundance in the immunopeptidome: C1R.B*57:01, 35 µM abacavir 0-16 h or constant, linear regression of normalised abundance, three replicates; for Abacavir dependence: LC-MRM-MS detection, classification of the peptide based on abacavir dependency; for Linear regression slope: linear regression of LC-MRM-MS peptide abundance over abacavir treatment time

Row | Substance | Effect of tapasin on binding of fluorescent peptide to HLA-B*57:01fos [1] | HLA-B*57:01 previous observation by LC-MS/MS, Abacavir treated [2] | HLA-B*57:01 previous observation by LC-MS/MS, Untreated [2] | Category of abacavir impact on peptide abundance in the immunopeptidome [3] | Abacavir dependence [3] | Linear regression slope [3]
1 | LTTK*LTNTNI | did not affect the binding |  |  |  |  | 
2 | KTIKLWNTL [HLA-B*57:01 ligand derived from RACK1] |  | + (+ (< 5% FDR)) | + (+ (< 5% FDR)) | abacavir facilitated (abacavir facilitated (slope > 0.02, abundance > 0 at t = 0 in at least two of three replicates)) | Facilitated | 0.0224
3 | RTLLEDGTFKV |  | + (+ (< 5% FDR)) |  |  | Dependent | 0.0443
4 | KTFKDVGNLL [non-labelled HLA-B*57:01 ligand] |  | + (+ (< 5% FDR)) | + (+ (< 5% FDR)) | Facilitated | Facilitated | 0.0314
5 | KSIARVLTV |  | # (# (> 5% FDR)) |  |  | Dependent | 0.0347
6 | MTAGVDGHSW |  | + (+ (< 5% FDR)) | + (+ (< 5% FDR)) |  | Minimal | -0.0056
7 | ITKTVVENI [HLA-B*57:01 ligand] |  | + (+ (< 5% FDR)) | + (+ (< 5% FDR)) | Minimal | Minimal | -0.0036
8 | RVAQLEQVYI |  | + (+ (< 5% FDR)) |  |  | Dependent | 0.0208
9 | KTIETSPSL [HLA-B*57:01 ligand] |  | # (# (> 5% FDR)) |  | abacavir facilitated (abacavir facilitated (slope > 0.02, abundance > 0 at t = 0 in at least two of three replicates)) |  | 
10 | TSLKSRVTI [non-labelled HLA-B*57:01 ligand] |  | # (# (> 5% FDR)) | + (+ (< 5% FDR)) | Facilitated | Facilitated | 0.0267
11 | KSIFVFTHV |  | + (+ (< 5% FDR)) |  |  | Dependent | 0.0498
12 | HTIQIRQDW [HLA-B*57:01 ligand] |  | + (+ (< 5% FDR)) | + (+ (< 5% FDR)) | Facilitated | Facilitated | 0.0256
13 | GTYQDVGSLNI |  | + (+ (< 5% FDR)) |  |  | Dependent | 0.0429
14 | LSKPNPPSL [HLA-B*57:01 ligand] |  | + (+ (< 5% FDR)) | + (+ (< 5% FDR)) | Minimal | Minimal | -0.0172
15 | TSQAGLFRLW |  | + (+ (< 5% FDR)) | + (+ (< 5% FDR)) |  | Minimal | 0.0067
16 | VSVKDIQAHL |  | + (+ (< 5% FDR)) |  |  | Dependent | 0.0241
17 | KTFTTQETI [HLA-B*57:01 ligand] |  | + (+ (< 5% FDR)) | + (+ (< 5% FDR)) | abacavir facilitated (abacavir facilitated (slope > 0.02, abundance > 0 at t = 0 in at least two of three replicates)) |  | 
18 | ITNADSATRLL |  |  | + (+ (< 5% FDR)) |  | Inhibited | -0.0254
19 | KVVDVVRNL [HLA-B*57:01 ligand derived from MX1] |  | # (# (> 5% FDR)) | + (+ (< 5% FDR)) | abacavir inhibited (abacavir inhibited (slope < −0.02)) | Inhibited | -0.0432
20 | LTSELITHI [HLA-B*57:01 ligand derived from MX1] |  | + (+ (< 5% FDR)) |  | abacavir dependent (abacavir dependent (slope > 0.02, abundance = 0 at t = 0 in at least two of three replicates)) | Dependent | 0.0325
21 | KSYELPDGQVI |  | + (+ (< 5% FDR)) | # (# (> 5% FDR)) |  | Facilitated | 0.0297
22 | LSSDINVRSW |  | + (+ (< 5% FDR)) | + (+ (< 5% FDR)) |  | Minimal | -0.0197
23 | SSAEVKVTI |  | + (+ (< 5% FDR)) |  |  | Dependent | 0.0466
24 | YFDPANGKF |  | + (+ (< 5% FDR)) | + (+ (< 5% FDR)) |  |  | 0.0159
25 | TFDDIVHSF |  | + (+ (< 5% FDR)) | + (+ (< 5% FDR)) |  |  | 0.0142
26 | KAIDYIRFL |  | + (+ (< 5% FDR)) | # (# (> 5% FDR)) |  | Inhibited | -0.0293
27 | LSQEQLRQW |  | + (+ (< 5% FDR)) | + (+ (< 5% FDR)) |  | Minimal | 0.0083
28 | VSAKEKYYVW |  | + (+ (< 5% FDR)) | + (+ (< 5% FDR)) |  | Minimal | -0.0125
